US10703736B2, “Configurational stereoisomer of bromadiolone, composition and rodenticide bait comprising same, and method for controlling target rodent pests” (priority 2015, dated 2020)
“Also recorded” adds a separate entry of the source.

Assays:
[1] = type: in vivo, rat; settings: Sprague-Dawley rats, mixture D1,2 56% / D3,4 44%, about 13 mg bromadiolone per kg per os, liver on D1, D3, D7; FIG. 2
Method: (§1) About 0.525 g (+0.025 g) of rat liver is weighed out accurately and placed in a 50 mL polypropylene tube. 10 mL of acetone are added and the suspension is homogenized using an Ultra-Turrax® homogenizer/disperser for a time of about 30 seconds. The homogenizer/disperser shaft is rinsed with hot water and then twice with 20 mL of acetone in a polypropylene tube. The homogenate is centrifuged for 5 minutes at a centrifugation speed of 3000 rpm (revolutions per minute). The supernatant is collected and transferred into a test tube. The sample is subjected to evaporation under a stream of nitrogen (N2) at a temperature of 40° C. so as to form a dry extract.
(§2) 1 mL of acetonitrile is added to the tube containing the dry extract so as to dissolve it. The acetonitrile solution is washed twice successively with 1 mL of hexane. […]
On D1 (D+1), D3 (D+3) and D7 (D+7) after tube feeding, four rats anaesthetized beforehand with isoflurane are euthanized, the liver of the euthanized rats is removed, the bromadiolone is then extracted from the liver and the amount of each of the configurational stereoisomers of bromadiolone is assayed by high-pressure liquid chromatography analysis on a chiral column as described above. The area under the peaks of the chromatogram obtained is measured and each configurational stereoisomer of bromadiolone is quantified by comparison with a calibration curve.

[2] = tested on: male laboratory rats (OFA, Sprague-Dawley 200 g); assay: Anticoagulant power of each configurational stereoisomer: coagulation time (Quick time) of plasma of tube-fed rats; type: in vivo; settings: 1.5 mg of enantiomer per kilogram of rat by tube feeding on D0; blood on D1, D3, D7, D14; FIG. 3
Method: The following are administered to male laboratory rats (OFA, Sprague-Dawley 200 g) by tube feeding on D0: a composition comprising enantiomer E1 in a proportion of 1.5 mg of said enantiomer E1 per kilogram of rat; or a composition comprising enantiomer E2 in a proportion of 1.5 mg of said enantiomer E2 per kilogram of rat; or a composition comprising enantiomer E3 in a proportion of 1.5 mg of said enantiomer E3 per kilogram of rat; or a composition comprising enantiomer E4 in a proportion of 1.5 mg of said enantiomer E4 per kilogram of rat.
On these rats, blood is collected on D1, D3, D7 and D14 and measurement of the coagulation time (Quick time, expressed in seconds) of the plasma is performed using the “Neoplastine CI Determination of Prothrombin Time” kit (Diagnostica Stago, Asnibre, France) by measurement on a Thrombotimer Option 2 Plus machine (Behnk Electronik, Norderstedt, Germany).

[3] = Hepatic persistence of each configurational stereoisomer in rats tube-fed with a single stereoisomer; type: in vivo, rat; settings: liver of rats tube-fed with the single enantiomer at 1.5 mg per kilogram; FIG. 4
Method: as §1, §2
The liver of the rats treated above is removed for the purposes of comparative analysis of the anticoagulant power of the configurational stereoisomers of bromadiolone, the bromadiolone is then extracted from the liver and the amount of each of the configurational stereoisomers of bromadiolone is assayed by high-pressure liquid chromatography analysis on a chiral column as described above. The area under the peaks of the chromatogram obtained is measured and each configurational stereoisomer of bromadiolone is quantified by comparison with a calibration curve. […]

Compound	persistence in rat liver (hepatic concentration) [1]	anticoagulant effect / anticoagulant activity (coagulation time, Quick time) [2]	hepatic persistence of each enantiomer [3]
O=c1oc2ccccc2c(O)c1C(CC(O)c1ccc(-c2ccc(Br)cc2)cc1)c1ccccc1 (single isomer, unassigned) [diastereoisomer D1,2, 3-[3-(4′-bromo[1,1′-biphenyl]-4-yl)-3-hydroxy-1-phenylpropyl]-4-hydroxy-2H-1-benzopyran-2-one]	the more persistent in the liver of target rodents		
O=c1oc2ccccc2c(O)c1C(CC(O)c1ccc(-c2ccc(Br)cc2)cc1)c1ccccc1 (single isomer, unassigned) [enantiomer E1, 3-[3-(4′-bromo[1,1′-biphenyl]-4-yl)-3-hydroxy-1-phenylpropyl]-4-hydroxy-2H-1-benzopyran-2-one]	longest persistence in rat liver of the four enantiomers	sufficient to maintain an anticoagulant effect up to D7; also recorded: higher anticoagulant activity than the anticoagulant activity of said enantiomer E2 and also higher than the anticoagulant activities of said two enantiomers of said diastereoisomer D3,4	highest hepatic persistence among the bromadiolone enantiomers; also recorded: higher than the persistence in the liver of target rodent pests of said enantiomer E2 and higher than the persistence in the liver of target rodent pests of each enantiomer of said diastereoisomer D3,4
